Experimental data published in ChEMBL document CHEMBL4673219, “Novel 5,6-disubstituted pyrrolo[2,3-d]pyrimidine derivatives as broad spectrum antiproliferative agents: Synthesis, cell based assays, kinase profile and molecular docking study” (Bioorg Med Chem, 2018).
“And” between values parts separate entries of the source, which are not always exact repeats. Equal values may be shown once.

What was measured:
BT-549 = assay: Growth inhibition of human BT-549 cells assessed as growth percentage at 0.1 uM incubated for 48 hrs by sulforhodamine B assay relative to control; assay type: functional; details: read-out: Activity
A498 = assay: Growth inhibition of human A498 cells assessed as growth percentage at 0.1 uM incubated for 48 hrs by sulforhodamine B assay relative to control; assay type: functional; details: read-out: Activity
NCI-H322M [1] = assay: Growth inhibition of human NCI-H322M cells incubated for 48 hrs by sulforhodamine B assay; assay type: functional; details: for CC50: 48 h, read-out: LC50 (the source's name)
SK-OV-3 = assay: Growth inhibition of human SK-OV-3 cells assessed as growth percentage at 100 uM incubated for 48 hrs by sulforhodamine B assay relative to control; assay type: functional; details: read-out: Activity
UACC-257 = assay: Growth inhibition of human UACC-257 cells assessed as growth percentage at 100 uM incubated for 48 hrs by sulforhodamine B assay relative to control; assay type: functional; details: read-out: Activity
CCRF-CEM [2] = assay: Growth inhibition of human CCRF-CEM cells assessed as growth percentage at 1 uM incubated for 48 hrs by sulforhodamine B assay relative to control; assay type: functional; details: read-out: Activity
SR = assay: Growth inhibition of human SR cells incubated for 48 hrs by sulforhodamine B assay; assay type: functional; details: for CC50: read-out: LC50 (the source's name)
HL-60(TB) [3] = assay: Growth inhibition of human HL-60(TB) cells assessed as growth percentage at 1 uM incubated for 48 hrs by sulforhodamine B assay relative to control; assay type: functional; details: read-out: Activity
OVCAR-4 [4] = assay: Growth inhibition of human OVCAR-4 cells assessed as growth percentage at 100 uM incubated for 48 hrs by sulforhodamine B assay relative to control; assay type: functional; details: read-out: Activity
[5] = Terminal half life in Sprague-Dawley rat at 10 mg/kg, iv measured up to 24 hrs by LC-MS/MS analysis; assay type: ADME, organism-based; details: in vivo, read-out: beta t1/2
NCI/ADR-RES = assay: Growth inhibition of human NCI/ADR-RES cells assessed as growth percentage at 10 uM incubated for 48 hrs by sulforhodamine B assay relative to control; assay type: functional; details: read-out: Activity
NCI-H226 = assay: Growth inhibition of human NCI-H226 cells assessed as growth percentage at 0.1 uM incubated for 48 hrs by sulforhodamine B assay relative to control; assay type: functional; details: read-out: Activity
COLO 205 = assay: Growth inhibition of human COLO 205 cells incubated for 48 hrs by sulforhodamine B assay; assay type: functional
SNB-75 = assay: Growth inhibition of human SNB-75 cells assessed as growth percentage at 10 uM incubated for 48 hrs by sulforhodamine B assay relative to control; assay type: functional; details: read-out: Activity
CCRF-CEM [6] = assay: Growth inhibition of human CCRF-CEM cells assessed as growth percentage at 10 uM incubated for 48 hrs by sulforhodamine B assay relative to control; assay type: functional; details: read-out: Activity
M14 = assay: Growth inhibition of human M14 cells incubated for 48 hrs by sulforhodamine B assay; assay type: functional
OVCAR-3 = assay: Growth inhibition of human OVCAR-3 cells incubated for 48 hrs by sulforhodamine B assay; assay type: functional; details: for TGI: OVCAR-3; for CC50: OVCAR-3, read-out: LC50 (the source's name)
MCF7 = assay: Growth inhibition of human MCF7 cells assessed as growth percentage at 0.01 uM incubated for 48 hrs by sulforhodamine B assay relative to control; assay type: functional; details: read-out: Activity
K562 = assay: Growth inhibition of human K562 cells assessed as growth percentage at 100 uM incubated for 48 hrs by sulforhodamine B assay relative to control; assay type: functional; details: read-out: Activity
T47D [7] = assay: Growth inhibition of human T47D cells assessed as growth percentage at 100 uM incubated for 48 hrs by sulforhodamine B assay relative to control; assay type: functional; details: read-out: Activity
HL-60(TB) [8] = assay: Growth inhibition of human HL-60(TB) cells assessed as growth percentage at 10 uM incubated for 48 hrs by sulforhodamine B assay relative to control; assay type: functional; details: read-out: Activity
[9] = biological target: Tyrosine-protein kinase Lyn (Homo sapiens) (UniProt P07948); assay: Inhibition of human LYN at 10 uM using myelin basic protein as substrate incubated for 40 mins in presence of [gamma33P]ATP by scintillation counting method relative to control
KM12 = assay: Growth inhibition of human KM12 cells assessed as growth percentage at 10 uM incubated for 48 hrs by sulforhodamine B assay relative to control; assay type: functional; details: read-out: Activity
T47D [10] = assay: Growth inhibition of human T47D cells incubated for 48 hrs by sulforhodamine B assay; assay type: functional; details: for GI50: 48 h
HOP-92 = assay: Growth inhibition of human HOP-92 cells incubated for 48 hrs by sulforhodamine B assay; assay type: functional
[11] = biological target: Fibroblast growth factor receptor 1 (Homo sapiens) (UniProt P11362); assay: Inhibition of human FGFR1 at 10 uM using myelin basic protein as substrate incubated for 40 mins in presence of [gamma33P]ATP by scintillation counting method relative to control
NCI-H322M [12] = assay: Growth inhibition of human NCI-H322M cells assessed as growth percentage at 1 uM incubated for 48 hrs by sulforhodamine B assay relative to control; assay type: functional; details: read-out: Activity
OVCAR-4 [13] = assay: Growth inhibition of human OVCAR-4 cells assessed as growth percentage at 0.01 uM incubated for 48 hrs by sulforhodamine B assay relative to control; assay type: functional; details: read-out: Activity
NCI-H522 = assay: Growth inhibition of human NCI-H522 cells assessed as growth percentage at 0.1 uM incubated for 48 hrs by sulforhodamine B assay relative to control; assay type: functional; details: read-out: Activity
[14] = Clearance in Sprague-Dawley rat at 10 mg/kg, iv measured up to 24 hrs by LC-MS/MS analysis; assay type: ADME, organism-based; details: in vivo
TK-10 = assay: Growth inhibition of human TK-10 cells incubated for 48 hrs by sulforhodamine B assay; assay type: functional; details: for GI50 / TGI: TK-10
OVCAR-8 = assay: Growth inhibition of human OVCAR-8 cells assessed as growth percentage at 0.01 uM incubated for 48 hrs by sulforhodamine B assay relative to control; assay type: functional; details: read-out: Activity
DU-145 = assay: Growth inhibition of human DU-145 cells incubated for 48 hrs by sulforhodamine B assay; assay type: functional; details: for GI50 / TGI: DU-145
OVCAR-5 [15] = assay: Growth inhibition of human OVCAR-5 cells assessed as growth percentage at 100 uM incubated for 48 hrs by sulforhodamine B assay relative to control; assay type: functional; details: read-out: Activity
OVCAR-5 [16] = assay: Growth inhibition of human OVCAR-5 cells assessed as growth percentage at 0.1 uM incubated for 48 hrs by sulforhodamine B assay relative to control; assay type: functional; details: read-out: Activity
SF-539 = assay: Growth inhibition of human SF-539 cells assessed as growth percentage at 1 uM incubated for 48 hrs by sulforhodamine B assay relative to control; assay type: functional; details: read-out: Activity
OVCAR-5 [17] = assay: Growth inhibition of human OVCAR-5 cells assessed as growth percentage at 10 uM incubated for 48 hrs by sulforhodamine B assay relative to control; assay type: functional; details: read-out: Activity

Fibroblast growth factor receptor 1 (Homo sapiens), sequence (P11362 22-822 limits assumed): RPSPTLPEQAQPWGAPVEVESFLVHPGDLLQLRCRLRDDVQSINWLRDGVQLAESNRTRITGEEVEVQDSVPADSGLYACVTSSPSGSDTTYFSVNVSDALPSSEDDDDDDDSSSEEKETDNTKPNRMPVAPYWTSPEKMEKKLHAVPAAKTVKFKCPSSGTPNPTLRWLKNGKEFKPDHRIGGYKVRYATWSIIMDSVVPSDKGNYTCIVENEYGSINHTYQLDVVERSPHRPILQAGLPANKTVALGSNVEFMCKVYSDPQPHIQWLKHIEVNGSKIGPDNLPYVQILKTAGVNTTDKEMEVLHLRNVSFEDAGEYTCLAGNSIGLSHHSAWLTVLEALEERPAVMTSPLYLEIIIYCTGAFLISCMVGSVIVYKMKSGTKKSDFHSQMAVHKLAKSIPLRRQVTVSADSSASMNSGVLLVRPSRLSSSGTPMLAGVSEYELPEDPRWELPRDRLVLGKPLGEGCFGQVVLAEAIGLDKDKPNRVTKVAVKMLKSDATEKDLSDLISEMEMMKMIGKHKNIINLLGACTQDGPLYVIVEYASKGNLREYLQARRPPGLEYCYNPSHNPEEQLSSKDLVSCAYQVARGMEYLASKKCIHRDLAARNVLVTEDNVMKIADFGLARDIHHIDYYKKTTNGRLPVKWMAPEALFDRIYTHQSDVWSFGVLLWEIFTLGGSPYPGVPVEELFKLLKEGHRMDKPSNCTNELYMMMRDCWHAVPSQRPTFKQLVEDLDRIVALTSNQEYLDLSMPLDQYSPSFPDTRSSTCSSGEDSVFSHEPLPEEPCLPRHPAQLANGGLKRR
Tyrosine-protein kinase Lyn (Homo sapiens), sequence (P07948 2-512 limits assumed): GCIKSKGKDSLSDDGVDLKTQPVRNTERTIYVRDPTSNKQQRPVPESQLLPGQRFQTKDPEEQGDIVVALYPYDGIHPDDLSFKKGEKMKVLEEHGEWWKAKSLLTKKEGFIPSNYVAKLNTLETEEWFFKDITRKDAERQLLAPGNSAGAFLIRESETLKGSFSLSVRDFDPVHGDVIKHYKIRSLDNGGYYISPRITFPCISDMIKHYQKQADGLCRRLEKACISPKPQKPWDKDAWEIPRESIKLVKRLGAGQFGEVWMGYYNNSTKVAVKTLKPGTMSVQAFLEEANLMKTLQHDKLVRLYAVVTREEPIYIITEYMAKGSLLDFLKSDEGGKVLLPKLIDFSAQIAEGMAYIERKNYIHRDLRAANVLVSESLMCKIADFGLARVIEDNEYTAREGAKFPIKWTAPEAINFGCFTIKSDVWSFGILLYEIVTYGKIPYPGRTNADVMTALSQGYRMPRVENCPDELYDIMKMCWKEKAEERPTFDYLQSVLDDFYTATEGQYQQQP

SMILES: CCCCCCCC(=O)Nc1nc2[nH]c(CN3CCN(Cc4cccc(F)c4)CC3)c(CN3CCN(Cc4cccc(F)c4)CC3)c2c(=O)[nH]1
- growth at 0.1 µM (BT-549): 85%
- growth at 0.1 µM (A498): 76%
- GI50 (NCI-H322M [1]; Homo sapiens, NCI-H322M): 1.46 µM
- TGI (NCI-H322M [1]; Homo sapiens, NCI-H322M): 2.92 µM
- CC50 (NCI-H322M [1]; Homo sapiens, NCI-H322M): 5.83 µM
- growth at 100 µM (SK-OV-3): -99%
- growth at 100 µM (UACC-257): -91%
- growth at 1 µM (CCRF-CEM [2]): -17%
- GI50 (SR): 0.21 µM
- TGI (SR): 0.55 µM
- GI50 (SR; Homo sapiens, SR): 0.208 µM
- TGI (SR; Homo sapiens, SR): 0.548 µM
- CC50 (SR; Homo sapiens, SR): > 100 µM
- growth at 1 µM (HL-60(TB) [3]): 96%
- growth at 100 µM (OVCAR-4 [4]): -91%
- half-life [5]: 11.7 h
- growth at 10 µM (NCI/ADR-RES): -66.1%
- growth at 0.1 µM (NCI-H226): 95%
- GI50 (COLO 205): 1.4 µM
- TGI (COLO 205): 2.82 µM
- CC50 (COLO 205; read-out: LC50 (the source's name)): 5.68 µM
- growth at 10 µM (SNB-75): -99.2%
- growth at 10 µM (CCRF-CEM [6]): -25.8%
- GI50 (M14; 48 h): 0.21 µM
- TGI (M14; 48 h): 0.47 µM
- LC50 (50% lethal concentration) (M14; Homo sapiens, M14): 1.24 µM
- GI50 (M14; Homo sapiens, M14, 48 h): 0.205 µM
- TGI (M14; Homo sapiens, M14, 48 h): 0.466 µM
- GI50 (OVCAR-3; 48 h): 0.78 µM
- TGI (OVCAR-3; Homo sapiens): 2.17 µM
- GI50 (OVCAR-3; Homo sapiens, OVCAR-3, 48 h): 0.781 µM
- CC50 (OVCAR-3; Homo sapiens): 5.28 µM
- growth at 0.01 µM (MCF7): 91%
- growth at 100 µM (K562): -1%
- growth at 100 µM (T47D [7]): -68%
- growth at 10 µM (HL-60(TB) [8]): -60.1%
- inhibition [9]: 70.3%
- growth at 10 µM (KM12): -88.9%
- GI50 (T47D [10]): 0.16 µM and 1.6 µM
- TGI (T47D [10]; Homo sapiens, T47D): 3.47 µM
- CC50 (T47D [10]; Homo sapiens, T47D, read-out: LC50 (the source's name)): 7.53 µM
- TGI (HOP-92; 48 h): 2.42 µM and 0.82 µM
- GI50 (HOP-92; Homo sapiens, HOP-92): 1.14 µM
- LC50 (HOP-92; Homo sapiens, HOP-92): 5.14 µM
- inhibition [11]: 54.5%
- growth at 1 µM (NCI-H322M [12]): 77%
- growth at 0.01 µM (OVCAR-4 [13]): 98%
- growth at 0.1 µM (NCI-H522): 94%
- clearance [14]: 342 mL/min/kg
- GI50 (TK-10): 1.74 µM
- TGI (TK-10): 3.26 µM
- CC50 (TK-10; TK-10, 48 h, read-out: LC50 (the source's name)): 6.11 µM
- growth at 0.01 µM (OVCAR-8): 102%
- GI50 (DU-145): 1.1 µM
- TGI (DU-145): 2.42 µM

SMILES: Nc1nc2[nH]c(CN3CCN(c4cc(Cl)cc(Cl)c4)CC3)c(CN3CCN(c4cc(Cl)cc(Cl)c4)CC3)c2c(=O)[nH]1
- growth at 0.1 µM (BT-549): 92%
- growth at 0.1 µM (A498): 82%
- CC50 (NCI-H322M [1]): 73.2 µM and 7.32 µM
- growth at 100 µM (SK-OV-3): -74%
- growth at 100 µM (UACC-257): -57%
- growth at 100 µM (OVCAR-5 [15]): -35%
- growth at 1 µM (CCRF-CEM [2]): 87%
- GI50 (SR; Homo sapiens, SR): 1.46 µM
- TGI (SR; Homo sapiens, SR): 4.46 µM
- CC50 (SR): > 100 µM
- growth at 0.1 µM (OVCAR-5 [16]): 94%
- growth at 100 µM (OVCAR-4 [4]): -82%
- growth at 10 µM (NCI/ADR-RES): 87.6%
- growth at 0.1 µM (NCI-H226): 89%
- GI50 (COLO 205): 1.69 µM
- TGI (COLO 205): 3.56 µM
- growth at 10 µM (SNB-75): 63.7%
- growth at 10 µM (CCRF-CEM [6]): 45.1%
- growth at 1 µM (SF-539): 93%
- GI50 (M14; Homo sapiens, M14, 48 h): 1.83 µM
- TGI (M14; Homo sapiens, M14, 48 h): 3.63 µM
- TGI (OVCAR-3; Homo sapiens): 3.38 µM
- GI50 (OVCAR-3; Homo sapiens, OVCAR-3, 48 h): 1.81 µM
- CC50 (OVCAR-3; Homo sapiens): 6.28 µM
- growth at 0.01 µM (MCF7): 86%
- growth at 100 µM (K562): 3%
- growth at 100 µM (T47D [7]): -44%
- growth at 10 µM (HL-60(TB) [8]): 24.4%
- growth at 10 µM (KM12): 64.2%
- TGI (T47D [10]; Homo sapiens, T47D): 4.02 µM
- GI50 (T47D [10]; Homo sapiens, T47D): 1.78 µM
- growth at 10 µM (OVCAR-5 [17]): 92.2%
- GI50 (HOP-92; Homo sapiens, HOP-92): 1.35 µM
- TGI (HOP-92; Homo sapiens, HOP-92, 48 h): 3.54 µM
- inhibition [11]: -8.65%
- growth at 1 µM (NCI-H322M [12]): 100%
- growth at 0.01 µM (OVCAR-4 [13]): 95%
- growth at 0.1 µM (NCI-H522): 97%
- GI50 (TK-10): 1.8 µM
- TGI (TK-10): 3.26 µM
- growth at 0.01 µM (OVCAR-8): 100%
- GI50 (DU-145): 1.92 µM
- TGI (DU-145): 3.46 µM
- CC50 (DU-145; DU-145, 48 h, read-out: LC50 (the source's name)): 6.24 µM
